Experimental data reported in ChEMBL document CHEMBL1201862, “PubChem BioAssay data set” (2004).
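These data come from cells grown in 96-well plates and exposed to compound for 48 hours at five concentrations. Abbreviation: GI50, concentration required for 50% inhibition of growth.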 Activity calls are given as the source filed them. Rule as the data show it: active = GI50 up to about 1.1 µM and inactive = higher.

What was measured:
Test in all cases: DTP human tumour cell line panel, 48 h
HOP-62 = tested on: HOP-62
A549 = tested on: A549
OVCAR-8 = tested on: OVCAR-8
SF-295 = tested on: SF-295
OVCAR-5 = tested on: OVCAR-5
SW-620 = tested on: SW-620
UACC-257 = tested on: UACC-257
786-0 = tested on: 786-0
RPMI-8226 = tested on: RPMI-8226
SK-MEL-5 = tested on: SK-MEL-5
MCF7 = tested on: MCF7
Hs-578T = tested on: Hs-578T
HT-29 = tested on: HT-29
SR = tested on: SR
UO-31 = tested on: UO-31
Malme-3M = tested on: Malme-3M
MDA-N = tested on: MDA-N
CAKI-1 = tested on: CAKI-1
UACC-62 = tested on: UACC-62
K562 = tested on: K562
SNB-75 = tested on: SNB-75
SN12C = tested on: SN12C
NCI-H522 = tested on: NCI-H522
MDA-MB-231 = tested on: MDA-MB-231
MDA-MB-435 = tested on: MDA-MB-435
COLO 205 = tested on: COLO 205
NCI-H226 = tested on: NCI-H226
HCT-116 = tested on: HCT-116
HL-60 = tested on: HL-60
HOP-92 = tested on: HOP-92
RXF 393 = tested on: RXF 393
SF-539 = tested on: SF-539
EKVX = tested on: EKVX
CCRF-CEM = tested on: CCRF-CEM
OVCAR-3 = tested on: OVCAR-3
ACHN = tested on: ACHN
NCI/ADR-RES = tested on: NCI/ADR-RES
TK-10 = tested on: TK-10
U-251 = tested on: U-251
SK-MEL-28 = tested on: SK-MEL-28
HCT-15 = tested on: HCT-15
IGROV-1 = tested on: IGROV-1
T47D = tested on: T47D
PC-3 = tested on: PC-3
SK-OV-3 = tested on: SK-OV-3
NCI-H460 = tested on: NCI-H460
OVCAR-4 = tested on: OVCAR-4
BT-549 = tested on: BT-549
DU-145 = tested on: DU-145
MOLT-4 = tested on: MOLT-4
KM12 = tested on: KM12
NCI-H23 = tested on: NCI-H23
LOX IMVI = tested on: LOX IMVI
SK-MEL-2 = tested on: SK-MEL-2
A498 = tested on: A498
SF-268 = tested on: SF-268
SNB-19 = tested on: SNB-19
HCC 2998 = tested on: HCC 2998
M14 = tested on: M14

COc1cccc(NC(=O)CC(=O)NN)c1
GI50 (HOP-62): > 100 µM (inactive)
GI50 (A549): > 100 µM (inactive)
GI50 (OVCAR-8): > 100 µM (inactive)
GI50 (SF-295): > 100 µM (inactive)
GI50 (OVCAR-5): > 100 µM (inactive)
GI50 (SW-620): > 100 µM (inactive)
GI50 (UACC-257): > 100 µM (inactive)
GI50 (786-0): > 100 µM (inactive)
GI50 (RPMI-8226): > 100 µM (inactive)
GI50 (SK-MEL-5): > 100 µM (inactive)
GI50 (MCF7): > 100 µM (inactive)
GI50 (Hs-578T): > 100 µM (inactive)
GI50 (HT-29): > 100 µM (inactive)
GI50 (SR): > 100 µM (inactive)
GI50 (UO-31): > 100 µM (inactive)
GI50 (Malme-3M): > 100 µM (inactive)
GI50 (MDA-N): > 100 µM (inactive)
GI50 (CAKI-1): > 100 µM (inactive)
GI50 (UACC-62): > 100 µM (inactive)
GI50 (K562): > 100 µM (inactive)
GI50 (SNB-75): > 100 µM (inactive)
GI50 (SN12C): > 100 µM (inactive)
GI50 (NCI-H522): > 100 µM (inactive)
GI50 (MDA-MB-231): > 100 µM (inactive)
GI50 (MDA-MB-435): > 100 µM (inactive)
GI50 (COLO 205): > 100 µM (inactive)
GI50 (NCI-H226): > 100 µM (inactive)
GI50 (HCT-116): > 100 µM (inactive)
GI50 (HL-60): > 100 µM (inactive)
GI50 (HOP-92): > 100 µM (inactive)
GI50 (RXF 393): > 100 µM (inactive)
GI50 (SF-539): > 100 µM (inactive)
GI50 (EKVX): > 100 µM (inactive)
GI50 (CCRF-CEM): > 100 µM (inactive)
GI50 (OVCAR-3): > 100 µM (inactive)
GI50 (ACHN): > 100 µM (inactive)
GI50 (NCI/ADR-RES): > 100 µM (inactive)
GI50 (TK-10): > 100 µM (inactive)
GI50 (U-251): > 100 µM (inactive)
GI50 (SK-MEL-28): > 100 µM (inactive)
GI50 (HCT-15): > 100000 nM
GI50 (IGROV-1): > 100 µM (inactive)
GI50 (T47D): > 100 µM (inactive)
GI50 (PC-3): > 100 µM (inactive)
GI50 (SK-OV-3): > 100 µM (inactive)
GI50 (NCI-H460): > 100 µM (inactive)
GI50 (OVCAR-4): > 100 µM (inactive)
GI50 (BT-549): > 100 µM (inactive)
GI50 (DU-145): > 100 µM (inactive)
GI50 (MOLT-4): > 100 µM (inactive)
GI50 (KM12): > 100 µM (inactive)
GI50 (NCI-H23): > 100 µM (inactive)
GI50 (LOX IMVI): > 100 µM (inactive)
GI50 (SK-MEL-2): > 100 µM (inactive)
GI50 (A498): > 100 µM (inactive)
GI50 (SF-268): > 100 µM (inactive)
GI50 (SNB-19): > 100 µM (inactive)

C=CC(C)(C)n1cc(C2=C(O)C(=O)C(c3cn(C(C)(C)C=C)c4ccccc34)=C(OC(C)=O)C2=O)c2ccccc21
GI50 (HOP-62): 0.628 µM (active)
GI50 (A549): 0.426 µM (active)
GI50 (OVCAR-8): 0.632 µM (active)
GI50 (SF-295): 0.571 µM (active)
GI50 (OVCAR-5): 1.66 µM (inactive)
GI50 (SW-620): 1.53 µM (inactive)
GI50 (UACC-257): 0.64 µM (active)
GI50 (786-0): 1.47 µM (inactive)
GI50 (RPMI-8226): 0.984 µM (active)
GI50 (SK-MEL-5): 0.64 µM (active)
GI50 (MCF7): 0.0715 µM (active)
GI50 (Hs-578T): 0.646 µM (active)
GI50 (HCC 2998): 908 nM (active)
GI50 (HT-29): 0.807 µM (active)
GI50 (SR): 0.298 µM (active)
GI50 (UO-31): 1.07 µM (active)
GI50 (Malme-3M): 1.46 µM (inactive)
GI50 (MDA-N): 0.662 µM (active)
GI50 (CAKI-1): 1.08 µM (active)
GI50 (UACC-62): 0.571 µM (active)
GI50 (K562): 0.424 µM (active)
GI50 (SNB-75): 0.419 µM (active)
GI50 (M14): 1.25 µM (inactive)
GI50 (SN12C): 0.456 µM (active)
GI50 (NCI-H522): 1.55 µM (inactive)
GI50 (MDA-MB-231): 1.3 µM (inactive)
GI50 (MDA-MB-435): 0.513 µM (active)
GI50 (COLO 205): 1.67 µM (inactive)
GI50 (NCI-H226): 1.36 µM (inactive)
GI50 (HCT-116): 0.429 µM (active)
GI50 (HL-60): 0.571 µM (active)
GI50 (HOP-92): 0.598 µM (active)
GI50 (RXF 393): 0.929 µM (active)
GI50 (EKVX): 1.11 µM (active)
GI50 (CCRF-CEM): 0.435 µM (active)
GI50 (OVCAR-3): 1.04 µM (active)
GI50 (ACHN): 1.27 µM (inactive)
GI50 (NCI/ADR-RES): 1.64 µM (inactive)
GI50 (U-251): 0.426 µM (active)
GI50 (SK-MEL-28): 1.21 µM (inactive)
GI50 (HCT-15): 375 nM
GI50 (IGROV-1): 0.435 µM (active)
GI50 (T47D): 1.68 µM (inactive)
GI50 (PC-3): 0.75 µM (active)
GI50 (SK-OV-3): 1.49 µM (inactive)
GI50 (NCI-H460): 0.592 µM (active)
GI50 (OVCAR-4): 1.32 µM (inactive)
GI50 (BT-549): 0.494 µM (active)
GI50 (DU-145): 1.04 µM (active)
GI50 (MOLT-4): 0.475 µM (active)
GI50 (KM12): 0.565 µM (active)
GI50 (NCI-H23): 0.692 µM (active)
GI50 (LOX IMVI): 0.508 µM (active)
GI50 (SK-MEL-2): 1.02 µM (active)
GI50 (A498): 0.853 µM (active)
GI50 (SF-268): 0.655 µM (active)
GI50 (SNB-19): 1.04 µM (active)
